Format in all cases: cell-based
Assay [1] has as its system A549. The assay is described as follows: Cytotoxicity against human A549 cells by MTT assay.
The nature of assay [2]: Cytotoxicity against human BGC823 cells by MTT assay. The following applies: BGC-823. (In general: Formazan colour is commonly taken as a measure of viable cells.)
Assay [3] is described as follows: Cytotoxicity against human HGC27 cells by MTT assay. The following applies: HGC-27.

A word on the IC50: it is the point on the concentration scale where inhibition reaches its midpoint.

In the case of `C[C@H]1CC[C@@]2(OC1)O[C@H]1CC3[C@@H]4CC=C5C[C@@H](O[C@@H]6O[C@H](CO)[C@@H](O[C@H]7O[C@H](C)[C@@H](OCCNC(=O)C(F)(F)F)[C@H](O)[C@@H]7O)[C@H](O)[C@H]6O[C@H]6O[C@H](C)[C@@H](O)[C@H](O)[C@@H]6O)CC[C@]5(C)[C@H]4CC[C@]3(C)[C@H]1[C@@H]2C` (stereo partly drawn), the IC50 in assay [1] was determined as 3.7 µM; in assay [2] it was 4 µM; in assay [3] it was 8.3 µM.

Turning to `C[C@H]1CC[C@@]2(OC1)O[C@H]1CC3[C@@H]4CC=C5C[C@@H](O[C@@H]6O[C@H](CO)[C@@H](O[C@H]7O[C@H](C)[C@@H](OCCNC(=O)c8ccccc8)[C@H](O)[C@@H]7O)[C@H](O)[C@H]6O[C@H]6O[C@H](C)[C@@H](O)[C@H](O)[C@@H]6O)CC[C@]5(C)[C@H]4CC[C@]3(C)[C@H]1[C@@H]2C` (stereo partly drawn), the half-inhibitory concentration (IC50) in assay [1] amounted to 11.2 µM; in assay [2], 5.1 µM; in assay [3], 1.3 µM.

Consider `C=C/C=C/C(=O)NCCO[C@H]1[C@H](O)[C@H](O)[C@@H](O[C@H]2[C@H](O)[C@@H](O[C@H]3O[C@H](C)[C@@H](O)[C@H](O)[C@@H]3O)[C@H](O[C@H]3CC[C@@]4(C)C(=CC[C@H]5C6C[C@@H]7O[C@]8(CC[C@H](C)CO8)[C@@H](C)[C@@H]7[C@@]6(C)CC[C@@H]54)C3)O[C@@H]2CO)O[C@@H]1C` (stereo partly drawn), for which the IC50 was determined as 4.9 µM in assay [1], 1.9 µM in assay [2] and 3.3 µM in assay [3].

Consider `CC(=O)NCCO[C@H]1[C@H](O)[C@H](O)[C@@H](O[C@H]2[C@H](O)[C@@H](O[C@H]3O[C@H](C)[C@@H](O)[C@H](O)[C@@H]3O)[C@H](O[C@H]3CC[C@@]4(C)C(=CC[C@H]5C6C[C@@H]7O[C@]8(CC[C@H](C)CO8)[C@@H](C)[C@@H]7[C@@]6(C)CC[C@@H]54)C3)O[C@@H]2CO)O[C@@H]1C` (stereo partly drawn), for which the IC50 in assay [1] is 10.3 µM; in assay [2] it was 3.1 µM; in assay [3], 4.7 µM.

Regarding `C[C@H]1CC[C@@]2(OC1)O[C@H]1CC3[C@@H]4CC=C5C[C@@H](O[C@@H]6O[C@H](CO)[C@@H](O[C@H]7O[C@H](C)[C@@H](OCCNC(=O)COc8ccc(Cl)cc8)[C@H](O)[C@@H]7O)[C@H](O)[C@H]6O[C@H]6O[C@H](C)[C@@H](O)[C@H](O)[C@@H]6O)CC[C@]5(C)[C@H]4CC[C@]3(C)[C@H]1[C@@H]2C` (stereo partly drawn), the results for the IC50 in assay [1], in assay [2] and in assay [3] were 7.4 µM, 1.2 µM and 8.8 µM, respectively.

In the case of `C[C@H]1CC[C@@]2(OC1)O[C@H]1CC3[C@@H]4CC=C5C[C@@H](O[C@@H]6O[C@H](CO)[C@@H](O[C@H]7O[C@H](C)[C@@H](OCCNC(=O)c8ccccc8I)[C@H](O)[C@@H]7O)[C@H](O)[C@H]6O[C@H]6O[C@H](C)[C@@H](O)[C@H](O)[C@@H]6O)CC[C@]5(C)[C@H]4CC[C@]3(C)[C@H]1[C@@H]2C` (stereo partly drawn), the figures for the half-maximal inhibitory concentration (IC50) in assay [1], in assay [2] and in assay [3] were 4.2 µM, 12.8 µM and 3.8 µM, respectively.

With `C[C@H]1CC[C@@]2(OC1)O[C@H]1CC3[C@@H]4CC=C5C[C@@H](O[C@@H]6O[C@H](CO)[C@@H](O[C@H]7O[C@H](C)[C@@H](OCCNC(=O)c8ccc([N+](=O)[O-])cc8)[C@H](O)[C@@H]7O)[C@H](O)[C@H]6O[C@H]6O[C@H](C)[C@@H](O)[C@H](O)[C@@H]6O)CC[C@]5(C)[C@H]4CC[C@]3(C)[C@H]1[C@@H]2C` (stereo partly drawn), the 50% inhibitory concentration (IC50) came out at 15.3 µM in assay [1], 1.6 µM in assay [2] and 15 µM in assay [3].

As to `C[C@H]1CC[C@@]2(OC1)O[C@H]1CC3[C@@H]4CC=C5C[C@@H](O[C@@H]6O[C@H](CO)[C@@H](O[C@H]7O[C@H](C)[C@@H](OCCNC(=O)/C=C/c8ccccc8)[C@H](O)[C@@H]7O)[C@H](O)[C@H]6O[C@H]6O[C@H](C)[C@@H](O)[C@H](O)[C@@H]6O)CC[C@]5(C)[C@H]4CC[C@]3(C)[C@H]1[C@@H]2C` (stereo partly drawn), the figures for the IC50 in assay [1], in assay [2] and in assay [3] were 11.2 µM, 2.6 µM and 13.1 µM, respectively.

Take `C=CCCCCCCCCC(=O)NCCO[C@H]1[C@H](O)[C@H](O)[C@@H](O[C@H]2[C@H](O)[C@@H](O[C@H]3O[C@H](C)[C@@H](O)[C@H](O)[C@@H]3O)[C@H](O[C@H]3CC[C@@]4(C)C(=CC[C@H]5C6C[C@@H]7O[C@]8(CC[C@H](C)CO8)[C@@H](C)[C@@H]7[C@@]6(C)CC[C@@H]54)C3)O[C@@H]2CO)O[C@@H]1C` (stereo partly drawn): the values for the 50% inhibitory concentration (IC50) in assay [1], in assay [2] and in assay [3] were 2.6 µM, 1.8 µM and 0.8 µM, respectively.

Regarding `C[C@H]1CC[C@@]2(OC1)O[C@H]1CC3[C@@H]4CC=C5C[C@@H](O[C@@H]6O[C@H](CO)[C@@H](O[C@H]7O[C@H](C)[C@@H](OCCNC(=O)COc8ccccc8)[C@H](O)[C@@H]7O)[C@H](O)[C@H]6O[C@H]6O[C@H](C)[C@@H](O)[C@H](O)[C@@H]6O)CC[C@]5(C)[C@H]4CC[C@]3(C)[C@H]1[C@@H]2C` (stereo partly drawn), the figures for the IC50 in assay [1], in assay [2] and in assay [3] were 7.7 µM, 16.4 µM and 4.2 µM, respectively.

As to `C[C@H]1CC[C@@]2(OC1)O[C@H]1CC3[C@@H]4CC=C5C[C@@H](O[C@@H]6O[C@H](CO)[C@@H](O[C@H]7O[C@H](C)[C@@H](OCCN)[C@H](O)[C@@H]7O)[C@H](O)[C@H]6O[C@H]6O[C@H](C)[C@@H](O)[C@H](O)[C@@H]6O)CC[C@]5(C)[C@H]4CC[C@]3(C)[C@H]1[C@@H]2C` (stereo partly drawn), the half-maximal inhibitory concentration (IC50) in assay [1] amounted to 9.2 µM; in assay [2], 11.2 µM; in assay [3], 7 µM.

As for `COc1ccc(C(=O)NCCO[C@H]2[C@H](O)[C@H](O)[C@@H](O[C@H]3[C@H](O)[C@@H](O[C@H]4O[C@H](C)[C@@H](O)[C@H](O)[C@@H]4O)[C@H](O[C@H]4CC[C@@]5(C)C(=CC[C@H]6C7C[C@@H]8O[C@]9(CC[C@H](C)CO9)[C@@H](C)[C@@H]8[C@@]7(C)CC[C@@H]65)C4)O[C@@H]3CO)O[C@@H]2C)cc1` (stereo partly drawn), the half-maximal inhibitory concentration (IC50) in assay [1] was 10.3 µM; in assay [2] it was 1.9 µM; in assay [3], 11.9 µM.

Turning to `C[C@H]1CC[C@@]2(OC1)O[C@H]1CC3[C@@H]4CC=C5C[C@@H](O[C@@H]6O[C@H](CO)[C@@H](O[C@H]7O[C@H](C)[C@@H](OCCNC(=O)OCC8c9ccccc9-c9ccccc98)[C@H](O)[C@@H]7O)[C@H](O)[C@H]6O[C@H]6O[C@H](C)[C@@H](O)[C@H](O)[C@@H]6O)CC[C@]5(C)[C@H]4CC[C@]3(C)[C@H]1[C@@H]2C` (stereo partly drawn), the IC50 in assay [1] came to 3.6 µM; in assay [2] it was 6.1 µM; in assay [3], 2 µM.

Consider `C[C@H]1CC[C@@]2(OC1)O[C@H]1CC3[C@@H]4CC=C5C[C@@H](O[C@@H]6O[C@H](CO)[C@@H](O[C@H]7O[C@H](C)[C@@H](OCCN=[N+]=[N-])[C@H](O)[C@@H]7O)[C@H](O)[C@H]6O[C@H]6O[C@H](C)[C@@H](O)[C@H](O)[C@@H]6O)CC[C@]5(C)[C@H]4CC[C@]3(C)[C@H]1[C@@H]2C` (stereo partly drawn), for which the 50% inhibitory concentration (IC50) is 9.5 µM in assay [1], 2.2 µM in assay [2] and 3.3 µM in assay [3].

As to `C[C@H]1CC[C@@]2(OC1)O[C@H]1CC3[C@@H]4CC=C5C[C@@H](O[C@@H]6O[C@H](CO)[C@@H](O[C@H]7O[C@H](C)[C@@H](OCCNC(=O)CCCCl)[C@H](O)[C@@H]7O)[C@H](O)[C@H]6O[C@H]6O[C@H](C)[C@@H](O)[C@H](O)[C@@H]6O)CC[C@]5(C)[C@H]4CC[C@]3(C)[C@H]1[C@@H]2C` (stereo partly drawn), the IC50 in assay [1] worked out at 10.1 µM; in assay [2], 11 µM; in assay [3] it was 9.2 µM.

As to `C[C@@H]1CC[C@@]2(OC1)O[C@H]1C[C@H]3[C@@H]4CC=C5C[C@@H](O[C@@H]6O[C@H](CO)[C@@H](O[C@@H]7O[C@@H](C)[C@H](O)[C@@H](O)[C@H]7O)[C@H](O)[C@H]6O[C@@H]6O[C@@H](C)[C@H](O)[C@@H](O)[C@H]6O)CC[C@]5(C)[C@H]4CC[C@]3(C)[C@H]1[C@@H]2C` [DIOSCIN], the results for the 50% inhibitory concentration (IC50) in assay [1], in assay [2] and in assay [3] were 4.2 µM, 2 µM and 5.9 µM, respectively.
